Test results reported in patent US10174013B2, “Benzimidazole derivatives as kinase inhibitors” (SELVITA S.A., priority 2012, dated 2019).
Where a name gives a salt, the structure may show the parent alone. Read-outs that look alike come from different tables or passages of the source.

Experiments:
[1] = biological target: Pim-1 (Homo sapiens (Human), UniProt P11309); assay: ADP-Glo Kinase Assay, Pim-1; format: biochemical; details: 1 μM compound; for inhibition at 1 µM: read-out: Pim-1 % INH (1 μM)
Sequence of Pim-1 (P11309 whole entry): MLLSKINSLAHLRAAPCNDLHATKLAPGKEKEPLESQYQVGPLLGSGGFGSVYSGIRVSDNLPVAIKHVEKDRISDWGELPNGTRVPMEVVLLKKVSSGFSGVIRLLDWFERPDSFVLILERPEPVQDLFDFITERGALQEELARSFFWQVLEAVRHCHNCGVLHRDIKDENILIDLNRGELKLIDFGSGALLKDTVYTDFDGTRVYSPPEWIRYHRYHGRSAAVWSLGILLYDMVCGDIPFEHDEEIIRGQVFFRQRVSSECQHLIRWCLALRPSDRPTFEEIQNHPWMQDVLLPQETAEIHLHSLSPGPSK
Method: (§1) Compounds of the present invention were tested for their inhibitory activity against Pim-1, Pim-2, Pim-3, Flt3 wt, Flt3 ITD, CDK2/E and DYRK1. The testing of the compounds was carried out using the ADP-Glo™ Kinase Assay from Promega Corporation (Madison, Wis., USA).
(§2) The ADP-Glo™ Kinase Assay is a luminescent ADP detection assay to measure kinase activity by quantifying the amount of ADP produced during a kinase reaction. The kinase assay is performed in kinase assay buffer (5 mM MOPS, pH 7.5, 5 mM MgCl2, 0.4 mM EDTA, 1.5 mM DTT). Test samples initially dissolved in DMSO at 10 mM were diluted with the assay buffer to 1000 nM. A 30 μL volume/well of a mixture of substrates containing ATP (final ATP concentration in each kinase assay was equal to its apparent ATP Km).
(§3) The assay was performed in two steps: first, after the kinase reaction, an equal volume of ADP-Glo™ Reagent was added to terminate the kinase reaction and deplete the remaining ATP. Second, the Kinase Detection Reagent was added to simultaneously convert ADP to ATP and allowed the newly synthesized ATP to be measured using a luciferase/luciferin reaction. The luminescent signal generated was proportional to the ADP concentration produced and was correlated with kinase activity. A microplate spectrophotometer (Synergy 2 multi-mode microplate reader [BioTek]) was used for detecting the luminescence. The data was normalized and the percent of inhibition was obtained according to the following equation: […]

[2] = biological target: Pim-2 (Homo sapiens (Human), UniProt Q9P1W9); assay: ADP-Glo Kinase Assay, Pim-2; format: biochemical; details: 1 μM compound; for inhibition at 1 µM: read-out: Pim-2 % INH (1 μM)
Sequence of Pim-2 (Q9P1W9 whole entry): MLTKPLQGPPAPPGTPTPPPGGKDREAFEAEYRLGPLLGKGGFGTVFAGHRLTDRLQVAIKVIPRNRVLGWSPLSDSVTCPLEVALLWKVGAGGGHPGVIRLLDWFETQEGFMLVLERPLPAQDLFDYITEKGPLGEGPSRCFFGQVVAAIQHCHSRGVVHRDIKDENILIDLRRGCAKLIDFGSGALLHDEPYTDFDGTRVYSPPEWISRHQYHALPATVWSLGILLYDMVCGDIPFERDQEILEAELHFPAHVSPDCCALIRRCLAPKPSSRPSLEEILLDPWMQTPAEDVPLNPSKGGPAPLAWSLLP
Method: as §1, §2, §3

[3] = biological target: Pim-3 (Homo sapiens (Human), UniProt Q86V86); assay: ADP-Glo Kinase Assay, Pim-3; format: biochemical; details: 1 μM compound; for inhibition at 1 µM: read-out: Pim-3 % INH (1 μM)
Method: as §1, §2, §3

[4] = biological target: FLT3wt (Homo sapiens (Human), UniProt P36888); assay: ADP-Glo Kinase Assay, Flt3 wt; format: biochemical; details: 1 μM compound; for inhibition at 1 µM: read-out: Flt3wt % INH (1 μM)
Sequence of FLT3wt (P36888 27-993): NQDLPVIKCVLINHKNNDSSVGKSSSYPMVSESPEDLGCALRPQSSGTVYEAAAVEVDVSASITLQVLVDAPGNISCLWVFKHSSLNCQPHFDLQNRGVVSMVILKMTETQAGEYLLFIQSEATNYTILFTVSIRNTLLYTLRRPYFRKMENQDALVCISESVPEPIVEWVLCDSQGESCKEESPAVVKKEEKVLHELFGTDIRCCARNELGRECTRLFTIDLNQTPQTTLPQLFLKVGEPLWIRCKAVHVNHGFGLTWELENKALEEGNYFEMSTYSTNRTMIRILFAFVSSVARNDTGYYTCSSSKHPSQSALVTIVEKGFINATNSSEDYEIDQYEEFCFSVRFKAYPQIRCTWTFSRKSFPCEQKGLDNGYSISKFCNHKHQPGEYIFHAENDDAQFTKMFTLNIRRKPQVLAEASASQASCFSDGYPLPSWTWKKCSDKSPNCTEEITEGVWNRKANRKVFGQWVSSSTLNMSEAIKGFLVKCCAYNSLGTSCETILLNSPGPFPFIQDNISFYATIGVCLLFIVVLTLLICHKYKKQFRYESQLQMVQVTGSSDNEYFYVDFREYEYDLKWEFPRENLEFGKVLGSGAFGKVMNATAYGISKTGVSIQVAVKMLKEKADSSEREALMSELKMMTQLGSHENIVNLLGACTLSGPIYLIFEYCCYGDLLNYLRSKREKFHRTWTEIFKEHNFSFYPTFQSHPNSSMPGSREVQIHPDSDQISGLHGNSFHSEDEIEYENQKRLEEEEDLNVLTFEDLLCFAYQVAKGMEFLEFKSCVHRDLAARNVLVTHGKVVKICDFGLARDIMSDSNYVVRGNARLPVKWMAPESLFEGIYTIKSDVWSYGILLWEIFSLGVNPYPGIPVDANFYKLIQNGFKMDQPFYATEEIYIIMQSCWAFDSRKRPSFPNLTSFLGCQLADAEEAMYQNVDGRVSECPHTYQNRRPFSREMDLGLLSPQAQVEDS
Method: as §1, §2, §3

[5] = biological target: CDK2/E (Homo sapiens (Human), UniProt P24941); assay: ADP-Glo Kinase Assay, CDK2/E; format: biochemical; details: 1 μM compound; for inhibition at 1 µM: read-out: CDK2/E % INH (1 μM)
Method: as §1, §2, §3

[6] = biological target: DYRK1 (Homo sapiens (Human), UniProt Q13627); assay: ADP-Glo Kinase Assay, DYRK1; format: biochemical; details: 1 μM compound; for inhibition at 1 µM: read-out: DYRK1A % INH (1 μM)
Method: as §1, §2, §3

[7] = test system: MV4-11 cells; assay: Growth inhibition, MTS assay, MV4-11; format: cell-based, Human; details: MTS cell viability, read-out: MV4-11 ED50
Description: (§4) The following cell lines, were obtained and used in tests as outlined below: • Human myelomonocytic, biphenotypic leukemia MV4-11 cells (harboring a Flt3-ITD mutation); • Human Acute Myeloid Leukemia MOLM16 cells; • Human Acute Myeloid Leukemia MOLM13 cells (harboring a Flt3-ITD mutation); • Human Myeloid Leukemia KG-1 cells; • Human erythroleukemia HEL92 cells; • Human mantle cell lymphoma Jeko-1 cells; • Human hepatocellular carcinoma HepG2 cells; and • Human colon adenocarcinoma SW-480 cells.
(§5) The assays were carried out according to the following protocol, which is described as an example for the MV4-11 cells:
(§6) Ten thousand MV4-11 cells were inoculated into each well of a 96-well microplate (manufactured by Corning Corp.) using Iscove's MDM medium (culture medium) containing 10% fetal calf serum (FCS). The same day, a dimethyl sulfoxide (DMSO) solution of each test compound prepared in a concentration of 10 mmol/L was further diluted with DMSO to the desired concentrations (0.1, 0.5, 1, 2.5, 5 and 10 micromol/L), and the diluted solution was added to each well. The individual wells were further cultured in 5% carbon dioxide at 37° C. for 72 hours. […] Briefly, 10 μl MTS (3-(4,5-Dimethyl-2-thiazolyl)-5-(carboxymethoxyphenyl)-2-(4-sulfophenyl)-2H-tetrazolium was added to each well, and culturing was performed in 5% carbon dioxide at 37° C. for 2 hours. After this incubation and using a microplate spectrophotometer (Synergy 2 multi-mode microplate reader (BioTek)), the absorbance of each well was measured at 490 nm. The value for cells not incubated with a test compound was designated as 100%. By comparing these values with the absorbance difference obtained at the well in which each test compound was added, the cell viability (% viability) after treatment with the test compound was calculated.

[8] = test system: HEL92 cells; assay: Growth inhibition, MTS assay, HEL92; format: cell-based, Human; details: MTS cell viability, read-out: HEL92 ED50
Description: as §4, §5, §6

[9] = test system: HepG2 cells; assay: Growth inhibition, MTS assay, HepG2; format: cell-based, Human; details: MTS cell viability, read-out: HepG2 ED50
Description: as §4, §5, §6

[10] = test system: SW-480 cells; assay: Growth inhibition, MTS assay, SW-480; format: cell-based, Human; details: 72 hours, MTS cell viability, read-out: SW-480 ED50
Description: as §4, §5, §6

Row | Structure (SMILES) | Pim-1 % INH (1 μM) [1] | Pim-2 % INH (1 μM) [2] | Pim-3 % INH (1 μM) [3] | Flt3wt % INH (1 μM) [4] | CDK2/E % INH (1 μM) [5] | DYRK1A % INH (1 μM) [6] | IC50 ([7]; 72 hours) | IC50 ([9]; 72 hours) | inhibition at 1 µM [1] | inhibition at 1 µM [2] | inhibition at 1 µM [3] | inhibition at 1 µM [4] | inhibition at 1 µM [5] | inhibition at 1 µM [6] | IC50 ([7]; Homo sapiens, MV4-11, 72 h) | IC50 ([9]; Homo sapiens, HepG2, 72 h) | IC50 [10] | IC50 ([10]; Homo sapiens, SW480) | IC50 ([8]; Homo sapiens, 72 h) | IC50 ([8]; 72 hours)
1 | O=[N+]([O-])c1c(Br)c(Br)cc2c1nc(N1CCNCC1)n2CC1CCC1 [Example 2F, 5,6-dibromo-1-(cyclobutylmethyl)-4-nitro-2-(piperazin-1-yl)-1H-1,3-benzodiazole hydrochloride] |  |  |  |  |  |  |  |  | > 95% | 70% | 89% | 78% | 15% | > 95% | 300 nM | 1800 nM |  |  | 2100 nM | 
2 | CC(C)n1c(NC2CCNC2)nc2c([N+](=O)[O-])c(Br)c(Br)cc21 (stereo not shown) [Example 1BA] |  |  |  |  |  |  |  |  | > 95% | 51% | 82% | 15% | 6% | 52% | 1100 nM | 1900 nM |  |  | 6900 nM | 
3 | CCn1c(N2CCC(N)CC2)nc2c([N+](=O)[O-])c(Br)c(Br)cc21 [Example 1I] |  |  |  |  |  |  | 5100 nM | 4300 nM |  |  |  |  |  |  |  |  | 5600 nM |  |  | 
4 | N[C@@H]1CCN(c2nc3c([N+](=O)[O-])c(Br)c(Br)cc3n2CC2CC2)C1 [Example 1BG] | >95% | 82% | >95% | 23% | <5% | >95% | 1600 nM | 4000 nM |  |  |  |  |  |  |  |  |  |  |  | 
5 | CCn1c(N2CCC[C@H](N)C2)nc2c([N+](=O)[O-])c(Cl)c(Cl)cc21 [Example 1CT] | >95% | 28% | 64% | 7% | 6% | 22% | 2700 nM | 6000 nM |  |  |  |  |  |  |  |  |  |  |  | 
6 | CCn1c(N2CCNCC2)nc2c(C(F)(F)F)c(Br)c(Br)cc21 [Example 9A, 5,6-dibromo-1-ethyl-2-(piperazin-1-yl)-4-(trifluoromethyl)-1H-1,3-benzodiazolehydrochloride] |  |  |  |  |  |  |  |  | > 95% | 15% | 66% | 76% | < 5% | 77% | 300 nM | 1500 nM |  |  |  | 
7 | CC(C)n1c(NCC2CNCCO2)nc2c(C#N)c(Br)c(Br)cc21 (stereo not shown) [Example 1BN] |  |  |  |  |  |  |  |  | > 95% | 29% | 77% | < 5% | < 5% | 21% | 1900 nM | 5100 nM |  |  |  | 
8 | O=[N+]([O-])c1c(Br)c(Br)cc2[nH]c(N3CCNCC3)nc12 [Example 1E] |  |  |  |  |  |  |  |  |  |  |  |  |  |  | 3300 nM | 6800 nM |  | 8100 nM |  | 
9 | CCn1c(N2CC[C@@H](N)C2)nc2c([N+](=O)[O-])c(Cl)c(Cl)cc21 [Example 1CO] | >95% | 25% | 69% | 12% | 27% | 30% | 4300 nM | 3900 nM |  |  |  |  |  |  |  |  |  |  |  | 
10 | CC(O)Cn1c(N2CCNCC2)nc2c([N+](=O)[O-])c(Br)c(Br)cc21 (stereo not shown) [Example 1BS] |  |  |  |  |  |  |  |  | > 95% | 21% | 48% | 39% | 21% | 66% | 900 nM | 3600 nM |  |  | 4600 nM | 
11 | O=[N+]([O-])c1c(Br)c(Br)cc2c1nc(N[C@H]1CCNC1)n2CC1CC1 [Example 1CI] | >95% | 64% | 75% | 19% | 10% | 57% | 1600 nM | 1400 nM |  |  |  |  |  |  |  |  |  |  |  | 6100 nM
12 | O=[N+]([O-])c1c(Br)c(Br)cc2c1nc(N[C@@H]1CCCNC1)n2CC1CC1 [Example 1CH] | 82% | 10% | 32% | 17% | 9% | 14% | 5000 nM | 2200 nM |  |  |  |  |  |  |  |  |  |  |  | 5700 nM

The next lines start with results.

Row | Pim-1 % INH (1 μM) [1] | Pim-2 % INH (1 μM) [2] | Pim-3 % INH (1 μM) [3] | Flt3wt % INH (1 μM) [4] | CDK2/E % INH (1 μM) [5] | DYRK1A % INH (1 μM) [6] | IC50 ([7]; 72 hours) | IC50 ([9]; 72 hours) | inhibition at 1 µM [1] | inhibition at 1 µM [2] | inhibition at 1 µM [3] | inhibition at 1 µM [4] | inhibition at 1 µM [5] | inhibition at 1 µM [6] | IC50 ([7]; Homo sapiens, MV4-11, 72 h) | IC50 ([9]; Homo sapiens, HepG2, 72 h) | IC50 [10] | IC50 ([10]; Homo sapiens, SW480) | Structure (SMILES) | IC50 ([8]; Homo sapiens, 72 h) | IC50 ([8]; 72 hours)
13 | >95% | 82% | 91% | 39% | 11% | 80% | 5100 nM | 2900 nM |  |  |  |  |  |  |  |  |  |  | CC(C)n1c(N2CCC[C@H](N)C2)nc2c(C#N)c(Br)c(Br)cc21 [Example 1BV] | 5300 nM | 
14 |  |  |  |  |  |  |  |  | > 95% | 36% | 88% | 49% | 11% | 43% | 500 nM | 1800 nM |  |  | CC(C)n1c(N2CCN[C@H](C)C2)nc2c([N+](=O)[O-])c(Br)c(Br)cc21 [Example 22AA, 5,6-dibromo-2-[(3R)-3-methylpiperazin-1-yl]-4-nitro-1-(propan-2-yl)-1H-1,3-benzodiazole] | 1200 nM | 
15 | >95% | 52% | 68% | 7% | <5% |  | 2400 nM | 1900 nM |  |  |  |  |  |  |  |  |  |  | CC(C)Cn1c(N2CCC[C@@H](N)C2)nc2c([N+](=O)[O-])c(Br)c(Br)cc21.Cl [Example 1AU] |  | 5800 nM
16 |  |  |  |  |  |  |  |  | 70% | 16% | 56% | 23% | 26% | 22% | 500 nM | 1200 nM |  |  | CC(C)n1c(NC2CCCNC2)nc2c(C#N)c(Br)c(Br)cc21 (stereo not shown) [Example 1BT] | 5700 nM | 
17 |  |  |  |  | <5% | 54% | 600 nM |  | > 95% | 82% | > 95% | 31% |  |  |  | 4800 nM |  |  | CC(C)n1c(N2CCC[C@H](N)C2)nc2c(C#N)c(Br)c(Br)cc21 [Example 1BJ] |  | 
18 |  |  |  |  |  |  |  |  | > 95% | 37% | 85% | 73% |  | 63% | 700 nM | 1600 nM |  |  | CC(C)n1c(N2CCN[C@@H](C)C2)nc2c([N+](=O)[O-])c(Br)c(Br)cc21 [Example 22Z, 5,6-dibromo-2-[(3S)-3-methylpiperazin-1-yl]-4-nitro-1-(propan-2-yl)-1H-1,3-benzodiazole] | 2400 nM | 
